# pIC50: −log10 of the molar value.
# System: IL-2 production
# Assay: Inhibition of IL-2 production in PHA-activated Jurkat cells (ELISA)
# Assay type: cell-based
# Settings: Homo sapiens, Jurkat, 20 h, PHA 2.5 μg/mL, IL-2 ELISA
# Procedure: Jurkat cells were placed in a 96 well plate (0.5 million cells per well in 1% FBS medium) then a test compound of this invention was added at different concentrations. After 10 minutes, the cells were activated with PHA (final concentration 2.5 μg/mL) and incubated for 20 hours at 37° C. under CO2. The final volume was 200 μL. Following incubation, the cells were centrifuged and the supernatants collected and stored at −70° C. prior to assaying for IL-2 production. A commercial ELISA kit (IL-2 Eli-pair, Diaclone Research, Besancon, France) was used to detect production of IL-2, from which dose response curves were obtained. The IC50 value was calculated as the concentration at which 50% of maximum IL-2 production after stimulation was inhibited versus a non-stimulation control.
row,pIC50,Compound
1,6.30 to 6.60,COc1ccc2c(c1)CCCc1nc(NC(=O)c3c(F)cccc3F)cnc1-2 [Compound 96]
2,7.00 to 7.52,O=C(Nc1c(F)cccc1F)c1nc2c(s1)-c1cc(-c3cncnc3)ccc1CCC2 [Compound 124]
3,6.00 to 6.30,CN(C)c1cccc(F)c1C(=O)Nc1nc2c(s1)-c1cc(C#N)ccc1CCC2 [Compound 81]
4,7.00 to 7.52,Fc1cccc(F)c1NC(=S)c1nc2c(s1)-c1cc(-c3cnco3)ccc1CCC2 [Compound 148]
5,6.30 to 6.60,COc1ccc(-c2ccc3c(c2)-c2sc(C(=O)Nc4c(F)cccc4F)nc2CCC3)cn1 [Compound 121]
6,≥ 7.52,O=C(Nc1c(F)cccc1F)c1nc2c(s1)-c1cc(-c3cccnc3F)ccc1CCC2 [Compound 122]
7,7.00 to 7.52,O=C(Nc1c(F)cccc1F)c1nc2c(s1)-c1cc(O)ccc1CCC2 [Compound 32]
8,< 6.00,O=C(Nc1nc2c(s1)-c1cc(Br)ccc1CCC2)c1c(F)cccc1F [Compound 17]
9,≥ 7.52,O=C(Nc1c(F)cccc1F)c1nc2c(s1)-c1cc(-c3ccccn3)ccc1CCC2 [Compound 37]
10,6.30 to 6.60,O=C(Nc1c(F)cccc1F)c1nc2c(s1)-c1cc(-c3ccc(F)nc3)ccc1CCC2 [Compound 120]
11,≥ 7.52,Cn1cncc1-c1ccc2c(c1)-c1sc(C(=O)Nc3c(F)cccc3F)nc1CCC2 [Compound 129]
12,6.00 to 6.30,O=Cc1cccc2c1CCCc1nc(NC(=O)c3c(F)cccc3F)sc1-2 [Compound 67]
13,≥ 7.52,O=C(Nc1c(F)cccc1F)c1nc2c(s1)-c1cc(-c3nccs3)ccc1CCC2 [Compound 34]
14,< 6.00,O=C(Nc1nc2c(=O)oc3ccc(O)cc3c2s1)c1c(F)cccc1F [Compound 15]
15,7.00 to 7.52,O=C(Nc1ccc2c(c1)CCCc1cnc(-c3ccncc3)nc1-2)c1c(F)cccc1F [Compound 108]
16,6.30 to 6.60,COc1cccc2c1CCCc1nc(C(=O)Nc3c(F)cccc3F)sc1-2 [Compound 6]
17,6.00 to 6.30,COc1ccc2c(c1)-c1sc(/C(=N\O)Nc3c(F)cccc3F)nc1CCC2 [Compound 147]
18,< 6.00,O=C1OCc2ccc(Br)cc2-c2sc(NC(=O)c3c(F)cccc3F)nc21 [Compound 139]
19,7.00 to 7.52,COC(=O)c1ccc2c(c1)CCCc1nc(NC(=O)c3c(F)cccc3F)sc1-2 [Compound 73]
20,< 6.00,O=C(Nc1c(F)cccc1F)c1nc2c(s1)-c1cc(-c3nnn[nH]3)ccc1CCC2 [Compound 40]

row,pIC50,Compound
1,≥ 7.52,Cn1cc(-c2ccc3c(c2)-c2sc(C(=O)Nc4c(F)cccc4F)nc2CCC3)cn1 [Compound 127]
2,< 6.00,COc1cccc2c1oc(=O)c1nc(NC(=O)c3c(F)cccc3F)sc12 [Compound 2]
3,< 6.00,O=C(Nc1c(F)cccc1F)c1nc2c(s1)-c1cc(CN3CCOCC3)ccc1CCC2 [Compound 42]
4,< 6.00,O=C(Nc1nc2c(s1)-c1cc(-c3ccccn3)ccc1CCC2)c1c(F)cccc1F [Compound 82]
5,6.30 to 6.60,O=C(Nc1ccc2c(c1)CCCc1cnc(C3CC3)nc1-2)c1c(F)cccc1F [Compound 110]
6,6.30 to 6.60,Cn1nnc(-c2ccc3c(c2)-c2sc(C(=O)Nc4c(F)cccc4F)nc2CCC3)n1 [Compound 41]
7,6.00 to 6.30,O=C(Nc1c(F)cccc1F)c1nc2c(s1)-c1cc(-c3cnc[nH]3)ccc1CCC2 [Compound 131]
8,< 6.00,COc1ccc2c(c1)-c1sc(NC(=O)c3c(F)cccc3F)nc1CCO2 [Compound 4]
9,< 6.00,Fc1cccc(F)c1CNc1ccc2c(c1)CCCc1cnc(-c3cccnc3)nc1-2 [Compound 104]
10,< 6.00,N#Cc1cc2c(s1)CCCc1nc(NC(=O)c3c(F)cccc3F)sc1-2 [Compound 86]
11,6.00 to 6.30,O=C(Nc1ncc2c(n1)CCCc1cnc(-c3cccnc3)nc1-2)c1c(F)cccc1F [Compound 89]
12,< 6.00,COc1cccc2c1CCCc1nc(NC(=O)c3ccncc3C)ncc1-2 [Compound 92]
13,6.60 to 7.00,O=C(Nc1nc2c(s1)-c1ccc(-c3nccs3)cc1CCC2)c1c(F)cccc1F [Compound 75]
14,6.30 to 6.60,O=C(Nc1nc2c(s1)-c1cc(O)ccc1CCC2)c1c(F)cccc1F [Compound 79]
15,6.60 to 7.00,O=C(Nc1nc2c(s1)-c1cccc(-c3nccs3)c1CCC2)c1c(F)cccc1F [Compound 70]
16,< 6.00,Fc1cccc(F)c1CN(Cc1c(F)cccc1F)c1ccc2c(c1)CCCc1cnc(-c3cccnc3)nc1-2 [Compound 103]
17,6.00 to 6.30,O=C(Nc1nc2c(s1)-c1nc(-c3cccnc3)sc1CCC2)c1c(F)cccc1F [Compound 88]
18,6.60 to 7.00,O=C(Nc1c(F)cccc1F)c1nc2c(s1)-c1cc(-c3cn[nH]c3)ccc1CCC2 [Compound 128]
19,< 6.00,O=c1oc2ccc(C(F)(F)F)cc2c2sc(NCc3c(F)cccc3F)nc12 [Compound 7]
20,< 6.00,COc1ccc2c(c1)CCCCc1nc(NC(=O)c3c(F)cccc3F)ncc1-2 [Compound 98]

row,pIC50,Compound
1,< 6.00,COc1cccc2c1CCCc1nc(C(=O)Nc3ccncc3C)sc1-2 [Compound 11]
2,6.30 to 6.60,N=C(Nc1c(F)cccc1F)c1nc2c(s1)-c1cc(-c3cnco3)ccc1CCC2 [Compound 153]
3,≥ 7.52,COc1ncccc1-c1ccc2c(c1)-c1sc(C(=O)Nc3c(F)cccc3F)nc1CCC2 [Compound 123]
4,6.30 to 6.60,O=C(Nc1c(F)cccc1F)c1nc2c(s1)-c1cc(OC(=O)n3ccnc3)ccc1CCC2 [Compound 111]
5,6.30 to 6.60,COc1ccc2c(c1)-c1sc(C(=O)Nc3ccncc3C)nc1CCC2 [Compound 10]
6,6.60 to 7.00,O=C(Nc1c(F)cccc1F)c1nc2c(s1)-c1cc(-c3ccnc(F)c3)ccc1CCC2 [Compound 118]
7,< 6.00,COc1ccc2c(c1)-c1sc(/C(=N/c3c(F)cccc3F)SC)nc1CCC2 [Compound 144]
8,6.60 to 7.00,O=C(Nc1c(F)cccc1F)c1nc2c(s1)-c1cc(-c3ccc(O)nc3)ccc1CCC2 [Compound 117]
9,< 6.00,O=C(Nc1c(F)cccc1F)c1nc2c(s1)-c1ccccc1CCC2 [Compound 31]
10,6.60 to 7.00,O=C(Nc1c(F)cccc1F)c1ccc2c(c1)CCCc1cnc(-c3cccnc3)nc1-2 [Compound 142]
11,7.00 to 7.52,O=C(Nc1c(F)cccc1F)c1nc2c(s1)-c1nc(-c3cccnc3)sc1CCC2 [Compound 133]
12,6.60 to 7.00,COc1cccc2c1CCCc1nc(NC(=O)c3c(F)cccc3F)ncc1-2 [Compound 91]
13,7.00 to 7.52,O=C(Nc1ccc2c(c1)CCCc1cnc(-c3cccnc3)nc1-2)c1c(F)cccc1F [Compound 99]
14,< 6.00,C/N=C(/Nc1c(F)cccc1F)c1nc2c(s1)-c1cc(OC)ccc1CCC2 [Compound 145]
15,6.00 to 6.30,COc1ccc2c(c1)CCCc1c-2ncc(NC(=O)c2c(F)cccc2F)[n+]1[O-] [Compound 97]
16,6.60 to 7.00,O=C(Nc1nc2c(s1)-c1cc(-c3nccs3)ccc1CCC2)c1c(F)cccc1F [Compound 83]
17,< 6.00,CN1Cc2ccc(Br)cc2-c2sc(NCc3c(F)cccc3F)nc2C1 [Compound 137]
18,< 6.00,O=C(Nc1nc2c(s1)-c1ccsc1CCC2)c1c(F)cccc1F [Compound 85]
19,6.00 to 6.30,COc1ccc2c(c1)-c1sc(C(=N)Nc3c(F)cccc3F)nc1CCC2 [Compound 152]

# Same assay, conditions: Homo sapiens, PHA 2.5 μg/mL, 20 hours, IL-2 ELISA
row,Compound,pIC50
1,O=C(Nc1c(F)ccc([N+](=O)[O-])c1F)c1nc2c(s1)-c1cc([N+](=O)[O-])ccc1CCC2 [Compound 36],6.00 to 6.30
2,O=C(Nc1c(F)ccc([N+](=O)[O-])c1F)c1nc2c(s1)-c1ccc([N+](=O)[O-])cc1CCC2 [Compound 35],6.60 to 7.00

# — patent US8779154B2, “Fused ring compounds for inflammation and immune-related uses” (priority 2006, dated 2014)
